Experimental data taken from ChEMBL document CHEMBL1629662, “Antimicrobial activity of prulifloxacin tested against a worldwide collection of gastroenteritis-producing pathogens, including those causing traveler's diarrhea” (2009).

Legend:
Vibrio parahaemolyticus = assay: Antibacterial activity against Vibrio parahaemolyticus by broth microdilution methods in presence of sulfamethoxazole
Vibrio alginolyticus = assay: Antibacterial activity against Vibrio alginolyticus by broth microdilution methods in presence of sulfamethoxazole
Vibrio fluvialis = assay: Antibacterial activity against Vibrio fluvialis by broth microdilution method in presence of sulfamethoxazole
Vibrio vulnificus = assay: Antibacterial activity against Vibrio vulnificus by broth microdilution method in presence of sulfamethoxazole
Vibrio sp. = assay: Antibacterial activity against Vibrio sp. by broth microdilution method in presence of sulfamethoxazole
Campylobacter jejuni = assay: Antibacterial activity against Campylobacter jejuni by broth microdilution method in presence of sulfamethoxazole
Campylobacter coli = assay: Antibacterial activity against Campylobacter coli by broth microdilution method in presence of sulfamethoxazole
Escherichia coli = assay: Antibacterial activity against Escherichia coli by broth microdilution methods in presence of sulfamethoxazolee
Salmonella typhimurium = assay: Antibacterial activity against Salmonella enterica serovar Typhimurium by broth microdilution method in presence of sulfamethoxazolee
Salmonella enteritidis = assay: Antibacterial activity against Salmonella enterica serovar Enteritidis by broth microdilution method in presence of sulfamethoxazolee
Salmonella typhi = assay: Antibacterial activity against Salmonella enterica serovar Typhi by broth microdilution method in presence of sulfamethoxazolee
Salmonella paratyphi = assay: Antibacterial activity against Salmonella enterica serovar Paratyphi by broth microdilution method in presence of sulfamethoxazolee
[1] = Antibacterial activity against Salmonella enterica serovar Newport by broth microdilution method in presence of sulfamethoxazole
[2] = Antibacterial activity against Salmonella enterica serovar Virchow by broth microdilution method in presence of sulfamethoxazole
[3] = Antibacterial activity against Salmonella enterica serovar Heidelberg by broth microdilution method in presence of sulfamethoxazole
Shigella sonnei = assay: Antibacterial activity against Shigella sonnei by broth microdilution method in presence of sulfamethoxazole
Shigella flexneri = assay: Antibacterial activity against Shigella flexneri by broth microdilution method in presence of sulfamethoxazole
Shigella boydii = assay: Antibacterial activity against Shigella boydii by broth microdilution methods in presence of sulfamethoxazole
Shigella dysenteriae = assay: Antibacterial activity against Shigella dysenteriae by broth microdilution methods in presence of sulfamethoxazole
Yersinia enterocolitica = assay: Antibacterial activity against Yersinia enterocolitica by broth microdilution methods in presence of sulfamethoxazole
[4] = tested on: Yersinia pseudotuberculosis; assay: Antibacterial activity against Yersinia pseudotuberculosis by broth microdilution methods in presence of sulfamethoxazole
Aeromonas hydrophila = assay: Antibacterial activity against Aeromonas hydrophila by broth microdilution methods in presence of sulfamethoxazole
Aeromonas caviae = assay: Antibacterial activity against Aeromonas caviae by broth microdilution methods in presence of sulfamethoxazole
Aeromonas sobria = assay: Antibacterial activity against Aeromonas sobria by broth microdilution methods in presence of sulfamethoxazole
Aeromonas veronii = assay: Antibacterial activity against Aeromonas veronii by broth microdilution methods in presence of sulfamethoxazole
Plesiomonas shigelloides = assay: Antibacterial activity against Plesiomonas shigelloides by broth microdilution method in presence of sulfamethoxazole
Vibrio cholerae = assay: microbe, parasite or virus in culture

COc1cc(Cc2cnc(N)nc2N)cc(OC)c1OC [TRIMETHOPRIM]
MIC50 (Vibrio parahaemolyticus): ≤ 0.5 µg/mL
MIC90 (Vibrio parahaemolyticus): ≤ 0.5 µg/mL
MIC50 (Vibrio alginolyticus): ≤ 0.5 µg/mL
MIC90 (Vibrio alginolyticus): ≤ 0.5 µg/mL
MIC50 (Vibrio fluvialis): ≤ 0.5 µg/mL
MIC90 (Vibrio fluvialis): ≤ 0.5 µg/mL
MIC50 (Vibrio vulnificus): ≤ 0.5 µg/mL
MIC90 (Vibrio vulnificus): ≤ 0.5 µg/mL
MIC50 (Vibrio sp.): ≤ 0.5 µg/mL
MIC90 (Vibrio sp.): ≤ 0.5 µg/mL
MIC50 (Campylobacter jejuni): 2 µg/mL
MIC90 (Campylobacter jejuni): 8 µg/mL
MIC50 (Campylobacter coli): 2 µg/mL
MIC90 (Campylobacter coli): 8 µg/mL
MIC50 (Escherichia coli): ≤ 0.5 µg/mL
MIC90 (Escherichia coli): > 64 µg/mL
MIC50 (Salmonella typhimurium): ≤ 0.5 µg/mL
MIC90 (Salmonella typhimurium): ≤ 0.5 µg/mL
MIC50 (Salmonella enteritidis): ≤ 0.5 µg/mL
MIC90 (Salmonella enteritidis): ≤ 0.5 µg/mL
MIC50 (Salmonella typhi): ≤ 0.5 µg/mL
MIC90 (Salmonella typhi): ≤ 0.5 µg/mL
MIC50 (Salmonella paratyphi): ≤ 0.5 µg/mL
MIC90 (Salmonella paratyphi): ≤ 0.5 µg/mL
MIC50 [1]: ≤ 0.5 µg/mL
MIC90 [1]: ≤ 0.5 µg/mL
MIC50 [2]: ≤ 0.5 µg/mL
MIC90 [2]: ≤ 0.5 µg/mL
MIC50 [3]: ≤ 0.5 µg/mL
MIC90 [3]: ≤ 0.5 µg/mL
MIC50 (Shigella sonnei): > 64 µg/mL
MIC90 (Shigella sonnei): > 64 µg/mL
MIC50 (Shigella flexneri): > 64 µg/mL
MIC90 (Shigella flexneri): > 64 µg/mL
MIC50 (Shigella boydii): > 64 µg/mL
MIC90 (Shigella boydii): > 64 µg/mL
MIC50 (Shigella dysenteriae): > 64 µg/mL
MIC90 (Shigella dysenteriae): > 64 µg/mL
MIC50 (Yersinia enterocolitica): ≤ 0.5 µg/mL
MIC50 [4]: ≤ 0.5 µg/mL
MIC50 (Aeromonas hydrophila): ≤ 0.5 µg/mL
MIC90 (Aeromonas hydrophila): 8 µg/mL
MIC50 (Aeromonas caviae): ≤ 0.5 µg/mL
MIC90 (Aeromonas caviae): 8 µg/mL
MIC50 (Aeromonas sobria): ≤ 0.5 µg/mL
MIC90 (Aeromonas sobria): 8 µg/mL
MIC50 (Aeromonas veronii): ≤ 0.5 µg/mL
MIC90 (Aeromonas veronii): 8 µg/mL
MIC (Plesiomonas shigelloides): ≤ 0.5 µg/mL
MIC50 (Plesiomonas shigelloides): ≤ 0.5 µg/mL
MIC50 (Vibrio cholerae): ≤ 0.5 µg/mL
MIC90 (Vibrio cholerae): ≤ 0.5 µg/mL
